This is an account of results in ChEMBL document CHEMBL1146322, “Synthesis and biological evaluation of some 5-ethoxycarbonyl-6-isopropylamino-4-(substitutedphenyl)aminopyrimidines as potent analgesic and anti-inflammatory agents” (Bioorg Med Chem Lett, 2007).

For orientation: inhibition in vivo means the drop in the measured response relative to a control, in per cent.

Data set [1] is filed under the species Rattus norvegicus. Briefly: Toxicity in rat assessed as ulcerogenic potential. The note with it: in vivo. It counts as organism-based.
For the next data set, the system named is Mus musculus. The data set is described as follows: Analgesic activity in Albino mouse assessed as inhibition of acetic acid-induced writhing at 50 mg/kg, po. It is filed as functional. (In general: An intraperitoneal irritant provokes the stretching counted in writhing tests.)
In data set [2] the test system is Rattus norvegicus. Briefly: Antiinflammatory activity in rat at 50 mg/kg, po. It is filed as functional.

In the case of `O=C([O-])Cc1ccccc1Nc1c(Cl)cccc1Cl.[Na+]` [DICLOFENAC SODIUM], the UI in the data set filed under Rattus norvegicus [1] is reported as 0.805. Moreover, the inhibition in vivo at 50 mg/kg in the data set on Mus musculus stood at 78%.
With `CCOC(=O)c1c(Nc2ccc(C)cc2)ncnc1NC(C)C`, the UI in the data set filed under Rattus norvegicus [1] came out at 0.29. The inhibition in vivo at 50 mg/kg stood at 72% in the data set with Mus musculus and 89.7% in the data set with Rattus norvegicus [2].
Consider `CCOC(=O)c1c(NC(C)C)ncnc1Oc1ccccc1`, for which the results for the inhibition in vivo at 50 mg/kg in the data set on Mus musculus and with Rattus norvegicus [2] were 70.2% and 55.5%, respectively.
Take `CCOC(=O)c1c(Nc2ccc(OC)cc2)ncnc1NC(C)C`: the results for the inhibition in vivo at 50 mg/kg with Mus musculus and in the data set on Rattus norvegicus [2] were 85.1% and 62.7%, respectively.
Consider `CCOC(=O)c1c(Nc2ccc([N+](=O)[O-])cc2)ncnc1NC(C)C`, for which the values for the inhibition in vivo at 50 mg/kg in the data set on Mus musculus and with Rattus norvegicus [2] were 77.4% and 84.6%, respectively.
Take `Cc1ccc(-c2cc(C(F)(F)F)nn2-c2ccc(S(N)(=O)=O)cc2)cc1` [CELECOXIB]: in the data set filed under Rattus norvegicus [1], the UI was found to be 0.104. Moreover, in the data set on Rattus norvegicus [2], at 50 mg/kg the inhibition in vivo was 82.1%.
In the case of `CCOC(=O)c1c(Nc2ccc(Cl)cc2)ncnc1NC(C)C`, the figures for the inhibition in vivo at 50 mg/kg in the data set with Mus musculus and with Rattus norvegicus [2] were 70.2% and 30.9%, respectively.
Turning to `CCOC(=O)c1c(Nc2ccc(S(N)(=O)=O)cc2)ncnc1NC(C)C`, the UI in the data set filed under Rattus norvegicus [1] was 0.241. Also, the inhibition in vivo at 50 mg/kg in the data set on Mus musculus came out at 72.6%; in the data set with Rattus norvegicus [2], 87.7%.
